Measurements taken from patent publication US20050227918A1, “Method for assaying susceptibility to cancer therapy in a subject by assaying for tumors of P53” (priority 2004, published 2005).
“Also recorded” adds a separate entry of the source. d = 2'-deoxy (DNA); r = 2'-OH (RNA)

Legend:
[1] = tested on: H1299 p53-/- cells; assay: Flow cytometric analysis of apoptosis (sub-G1) and cell cycle in H1299 cells inducibly expressing 72R or 72P wild-type p53; type: cell-based, Human; details: for apoptosis (sub-G1 fraction), 72R versus 72P expressing cells: induced H1299, 5-FU 50 μg/ml, cisplatin, taxol, etoposide, doxorubicin; for apoptosis (sub-G1 fraction), 72R versus 72P expressing cells / difference in apoptosis between 72R and 72P: camptothecin 5 μM, 24 hours; for difference in apoptosis between 72R and 72P: H1299 clones, doxorubicin 1 μg/ml; for apoptosis and cell cycle effect on induction of 72P p53: H1299 induced to express 72P wild-type p53; for apoptosis and cell cycle effect on induction of 72P p53 / apoptosis and cell cycle effect on induction of 72R p53: cisplatin 1 μg/ml, taxol 500 ng/ml, flow cytometry after 24 hours; for apoptosis and cell cycle effect on induction of 72R p53: H1299 induced to express 72R wild-type p53
Excerpt: 72R and 72P wild-type p53 plasmids were constructed by subcloning the inserts from pArgSP53 and pProSP53 (See Matlashewski, et al., Mol. Cell. Biol., 7:961-963 (1987), incorporated by reference) into commercially available pTRE, resulting in pTRE 72R p53 and pTRE 72P p53 plasmids. Human H1299 p53−/− cells, which were maintained in DMEM+10% fetal bovine serum, were transfected with the pTRE 72R p53 and pTRE 72P p53 plasmids in accordance with standard procedures, resulting in H1299 cells lines which inducibly express 72R or 72P p53 protein. These cell lines were grown in DMEM 10% FCS supplemented with 0.5 mg/ml G418 and 0.5 μg/ml puromycin. Expression of 72R or 72P wild-type p53 was induced in H1299 cells by doxycycline or non-induced. […] Control cells were not exposed to drugs. Flow cytometric analysis was then performed after 24 hours as described in Bergamaschi et al., Cancer Cell, 3:387-402 (2003), incorporated by reference. A minimum of six independent 72R-inducible and 72P-inducible clones were analyzed, to obviate the effect of clonal variation.
Further tests examined the cellular responses to the anticancer agents camptothecin and 5-fluorouracil (FU). H1299 cells were induced to express equal levels of 72R or 72P wild-type p53, as described supra, or not induced. […] The cells were then exposed to camptothecin (5 μM) or 5-FU (50 μg/ml). Flow cytometric analysis was performed after 24 hours.
Three experiments were conducted, each analyzing two independent clones of 72R-expressing H1299 cells and two independent clones of 72P-expressing H1299 cells. […] Control cells were not exposed to drugs, and control cells for camptothecin and 5-FU received the drug vehicle only. After 24 hours, apoptosis was determined by flow cytometry as previously described.

[2] = tested on: H1299 cells; assay: Colony-survival assays of H1299 cells expressing p53 variants; type: cell-based, Human
Description: The cytotoxicity of anticancer agents was determined in colony-survival assays of H1299 cells using standard protocols, following Bergamaschi, et al., supra, and as per the earlier examples. Briefly, H1299 cells were treated with doxycycline to induce p53 and plated at multiple densities. […] After drug exposure, cells were re-plated in drug free medium and grown until the appearance of visible colonies. Each drug exposure was done in triplicate in at least three experiments.
Further tests were performed to see if 46S influences cellular sensitivity to anticancer drugs in 72R-expressing cells.

[3] = tested on: p73; assay: Western blotting of endogenous p73 steady state levels following drug treatment; type: cell-based; details: 24 hours; for levels of p73 in HN30: head and neck squamous cell line HN30
Description: The squamous carcinoma cell lines (“SCC”) tested included cells of the head and neck, cervix, vulva, and immortalized skin […]. […] The cells were exposed to the drugs for 24 hours, after which they were harvested in a lysis buffer (50 mM Tris, 250 mM NaCl, 0.1% Nonidet NP-40, 5 mM EDTA, 1 mM PMSF, with a protease inhibitor cocktail). […] The immunoprecipitates were then resolved, on 10% polyacrylamide gels, and immunoblotted with the antibody, and a secondary anti-mouse light chain antibody conjugated to horseradish peroxidase, which was then visualized using standard methods.

[4] = tested on: p53; assay: Western Blot analysis of p53 expression in transfected H1299 cells; type: cell-based, Human; details: cisplatin 1 μg/ml, 24 hours; each of the four variants 46A/46S 72R/72P
Description: H1299 cells were cotransfected with pcDNA3 CD20 and plasmids expressing 46A 72R, 46A 72P, 46S 72R, or 46S 72P wild-type p53 or with an empty vector (no p53, as a control), as described supra. […] After 24 hours, the cells were analyzed by flow cytometry. Western Blot analysis of p53 expression was also performed.

[5] = tested on: p53; assay: siRNA and drug effect on p53 levels in squamous carcinoma cell lines (Western blotting); type: cell-based; details: head and neck squamous cells; siRNA 100 nM; doxorubicin 1 μg/ml, taxol 500 ng/ml, cisplatin 10 μg/ml; 24 hours
Description: After 24 hours, cell lysates were prepared and analyzed via Western blotting.

[6] = tested on: Saos-2 cells; assay: Apoptosis (sub-G1) in Saos-2 cells expressing dominant-negative p73 inhibitors; type: cell-based; details: for sensitivity to apoptosis of Saos-2 cells expressing p73Δ2 and p73DD: dominant-negative p73 inhibitors; for sensitivity to apoptosis of Saos-2 lines expressing p73DD (L371P): inactive point mutation
Description: The Saos-2 cells were maintained, as described, supra, and cell lines stably expressing the dominant negative inhibitors were generated by transfection, and then cultivation in the presence of 400 μg/ml of G418. Isolated colonies were ring cloned, and then the expression of transfected sequences was confirmed.
The cells, when in exponential growth phase, received 10 μg of a plasmid encoding p73, and 3 μg of pcDNA3CD20. Twenty-four hours after transfection, cells were harvested, stained with propidiumiodide, and apoptosis was determined as percentage of sub-G1 cells.
In brief, this was determined by seeding 10^2-10^6 cells, in quadruplicate, onto 9 cm tissue culture dishes, and were treated, 24 hours later, for 2 hours, with cytotoxic drugs at various concentrations. Following drug exposure, the cells were grown until visible colonies appeared. They were then fixed in methanol, and stained with Giemsa. Survival was calculated relative to the cells receiving the drug vehicle alone.

[7] = tested on: p53; assay: siRNA effect on steady state levels of p53 mutant in cells expressing 72P 173L or 72R 173L; type: cell-based; details: siRNA 10-100 μM as printed
Description: To investigate this small inhibitory RNA (“siRNA”) oligonucleotides were used. The sequences:
The siRNA oligos were transfected into cells, in amounts ranging from 10-100 μM, using commercially available reagents. The siRNA was introduced into cells expressing either the 72P 173L mutant or the 72R173L mutant. Both were shown, supra, to inhibit p73.

[8] = tested on: p53-p73 complexes; assay: p53-p73 complexes and p73 in Hacat cells after siRNA and drug treatment; type: cell-based; details: 100 nM siRNA
Description: As a follow up to the work, supra, experiments were carried out to determine if the siRNA influenced association of the mutant p53 molecules with p73. […] Cell lysates were prepared after 24 hours, and p53-p73 complexes were analyzed, as described supra.

[9] = tested on: Hacat cells; assay: Drug-induced apoptosis after p53 siRNA; type: cell-based; details: 100 nM siRNA, drugs 48 hours later
[10] = tested on: Saos-2 cells; type: cell-based
Description: The Saos-2 cells which had been engineered to stably express 72R and 72P mutants were then tested, in assays designed to determine whether p53 siRNA impacted drug resistance. Saos-2 cells which expressed 72R173Lp53 were treated with 100 nM of siRNA for p53, or with the same amount of PGL siRNA. […] Survival was assessed via colony forming ability.

Compound | apoptosis (sub-G1 fraction), 72R versus 72P expressing cells [1] | difference in apoptosis between 72R and 72P [1] | apoptosis and cell cycle effect on induction of 72P p53 [1] | apoptosis and cell cycle effect on induction of 72R p53 [1] | sensitivity of cells expressing 46A 72P p53 versus 46S 72P p53 [2] | levels of p73 in HN30 [3] | p53 levels [5] | sensitivity to apoptosis of Saos-2 cells expressing p73Δ2 and p73DD [6] | sensitivity to apoptosis of Saos-2 lines expressing p73DD (L371P) [6] | further results
O=c1[nH]cc(F)c(=O)[nH]1 [5-FU, 5-fluorouracil] | apoptosis was always higher in cells expressing the 72R p53 variant |  |  |  |  |  |  |  |  | 
CC[C@@]1(O)C(=O)OCc2c1cc1n(c2=O)Cc2cc3ccccc3nc2-1 [camptothecin] | apoptosis was always higher in cells expressing the 72R p53 variant | twofold |  |  |  |  |  |  |  | 
N.N.[Cl][Pt][Cl] [cisplatin] |  |  | minimal apoptosis but predominantly G1 arrest | increased sub-G1 fraction and a smaller G1 peak | similar | increased the levels of p73 | unaffected | less sensitive to apoptosis | sensitivity similar to control Saos-2 cells | levels of p53 protein after treatment [4]: increased
COc1cccc2c1C(=O)c1c(O)c3c(c(O)c1C2=O)C[C@@](O)(C(=O)CO)C[C@@H]3O[C@H]1C[C@H](N)[C@H](O)[C@H](C)O1 [doxorubicin] |  | eightfold |  |  | similar | increased the levels of p73 | unaffected | less sensitive to apoptosis | sensitivity similar to control Saos-2 cells | cytotoxic effect in cells expressing 46A 72R p53 relative to 46S 72R p53 [2]: diminished; p73 level, all cell lines ([3]; 1 μg/ml doxorubicin, squamous carcinoma cell lines and Saos-2): increased p73 in all cell lines
CC(=O)O[C@H]1C(=O)[C@@]2(C)[C@H]([C@H](OC(=O)c3ccccc3)[C@]3(O)C[C@H](OC(=O)[C@H](O)[C@@H](NC(=O)c4ccccc4)c4ccccc4)C(C)=C1C3(C)C)[C@]1(OC(C)=O)CO[C@@H]1C[C@@H]2O [taxol] |  |  | minimal apoptosis but predominantly G1 arrest | increased sub-G1 fraction and a smaller G1 peak |  | increased the levels of p73 | unaffected | less sensitive to apoptosis | sensitivity similar to control Saos-2 cells | 
p53 siRNA: small inhibitory RNA oligonucleotides, SEQ ID NO: 1 CUACUUCCUGAAAACAACG(d)TT and SEQ ID NO: 2 CGUUGUUUUCAGGAAGUAGd(TT) (chain 1 CUACUUCCUGAAAACAACGTT; chain 2 CGUUGUUUUCAGGAAGUAGTT; sugars from the 5' end r19 d2, backbone not given here) |  |  |  |  |  |  | reduced steady state levels of p53; also recorded: downregulated |  |  | steady state levels of p53 polymorphic variants of the mutant [7]: dose dependent reduction; amount of p53 which associated with p73 [8]: clear decrease; increase in p73 production associated with drug exposure [8]: not affected; apoptosis after siRNA followed by anticancer drugs, compared to controls [9]: clear increase in apoptosis; effect of siRNA on drug sensitivity, 143L mutant ([10]; Saos-2): similarly small effect; sensitivity to cisplatin and doxyrubicin of cell lines expressing 175H, 179Y, 179R, 245S, 248W, 249S, 273C and 282W ([10]; both polymorphic forms): increased sensitivity
